This is an account of results in patent US10220040B2, “Compounds, compositions and methods useful for cholesterol mobilization” (Cerenis Therapeutics Holding SA, priority 2010, dated 2019).

The test system of one assay is New Zealand rabbits. The experiment in a line: Plaque regression in high-cholesterol diet fed New Zealand rabbits. Format: in vivo, rabbit. On the procedure:
FIG. 20A-M: Plaque regression in rabbits treated with Compound IIa. New Zealand rabbits (n=15) with atherosclerotic plaques developed after 2 months of high-cholesterol diet, were treated with Compound IIa at 30, 100 and 300 μg/kg once a day by oral gavage for 4 weeks. FIG. 20A: lipids extracted from aortas were analyzed by GC/MS for cholesterol concentration. Dark bars, unesterified cholesterol; superimposed gray bars, total cholesterol. *p<0.05. FIG. 20B, FIG. 20C and FIG. 20D: Plasma VLDL cholesterol, LDL cholesterol and HDL cholesterol were resolved as described in FIG. 2. The results are expressed as the percentage from pre-dose. FIG. 20E: apoB concentration in plasma was determined by Western blot analysis. FIG. 20F: triglycerides were measured in the plasma using the kit from Biolabo. FIG. 20G: the bile acids concentrations in liver were determined using an enzymatic kit. FIG. 20H and FIG. 20K: hematoxylin/eosin staining of aortas from rabbits dosed with vehicle (FIG. 20H) or Compound IIa at 300 μg/kg (FIG. 20K). FIG. 20I and FIG. 20L: smooth muscle cells staining of aortas from rabbits dosed with vehicle (FIG. 20I) or Compound IIa at 300 μg/kg (FIG. 20L). FIG. 20J and FIG. 20M: macrophages and monocytes staining of aortas from rabbits dosed with vehicle (FIG. 20J) or Compound IIa at 300 μg/kg (FIG. 20M).
FIG. 21A-F: Functionality of plasma from high-cholesterol diet fed rabbits treated with Compound IIa. FIG. 21A: ApoA-I concentration in plasma was measured by SELDI-TOF analysis. Purified ApoA-I from homo-sapiens (MWSELDI=28083 Da) was used as a reference for determination of rabbit ApoA-I (MWSELDI=27838 Da) concentration. The results are expressed as the percentage from pre-dose. FIG. 21B: ApoA-I mRNA level was determined using the QPCR technique. Note the overall decrease in the HDL particle size of treated animals. FIG. 21C; HDL from rabbit plasma were separated according to the size of the different HDL particles using the Lipoprint® system. The data were expressed as the percentage for each HDL subpopulation set to the HDL population in the pre-dose animals. Two main HDL particle sub-populations were quantified (high and intermediate—dark and gray bars respectively). FIG. 21D: example of lipoprotein profiles of rabbit treated with vehicle (gray line) and with Compound IIa (300 μg/kg, dark line) using the Lipoprint® separation technique. FIG. 21E and FIG. 21F: determination of cholesterol efflux capacity of plasma and rabbit HDL, respectively, using pre-loaded [^3H]-cholesterol-oxLDL macrophages. The results are expressed as a percentage of cholesterol efflux. *p<0.05, **p<0.005.
After 2 months of High Cholesterol Diet feeding (0.5% cholesterol) and a wash-out period of 2 weeks, the animals were treated (by oral gavage) once day with Compound IIa at 30, 100 and 300 μg/kg for 4 weeks. Blood samples were collected before the dose administration on day 0 and after 4 weeks of administrations of Compound IIa. After final bleeding, the liver, gallbladder, heart, thoracic and abdominal aorta from heart (left ventricle) to iliac arteries were sampled.
Rabbit aortas were fixed in neutral formalin buffer and embedded in paraffin. Longitudinal 3 μm sections were stained with Hematoxylin-Eosin-Saffron for histology analysis. The tissue sections were deparaffinized and incubated in protein-free block to inhibit the nonspecific binding of primary monoclonal antibodies used for the immunostaining of rabbit monocytes and macrophages (RAM11 obtained from Dako Corp. 1:100 dilution) and smooth muscle cell-specific actin (HHF35 obtained from Dako Corp. 1:100 dilution). Secondary biotinylated […] antibody was used at 1:300 dilution (Dako).
The issue of whether stimulation of the P2Y13r pathway could affect the regression of atherosclerosis pre-induced in the high-cholesterol diet fed rabbits was also addressed. […]

A further assay relates to C57Bl6 mice. The experiment in a line: Bile acids physiology after IV injection in mice. The format is in vivo. The conditions noted are these: intravenously 10 nmol/kg, after 4 h; effect slightly higher than with Cangrelor. On the procedure: FIG. 5A-B: Single-dose effect of the illustrative compounds of the invention on bile acids secretion after IV injection. Mice were fasted for 2 hours and then injected in the caudal vein with the selected molecules (10 nmol/kg) in PBS solution (100 μl). 4 hours later the bile content was analyzed. FIG. 5A. Data are expressed as the concentration of bile acids. FIG. 5B. Data are expressed as the pool of bile acids per mouse (*p<0.05, **p<0.005, ***p<0.0001). Group of animals n=5.
Bile acids are derived from cholesterol and their synthesis is the predominant pathway for catabolism of cholesterol. The HDL uptake by the liver is directly connected with the bile acids secretion and the bile cholesterol clearance. […] An increase of bile acids concentration as well as of the bile volume was observed. All the compounds responded as well as or even better than the control compound (Reference Compound).
Bile acids were diluted in PBS (1:5000) and the concentration was measured according to the manufacturer protocol with slight modifications. Concentrations of bile acids in the standard curve were varied from […] and the enzymatic reaction was performed for 20 minutes. 4 μl of 1:5000 bile dilution was used for concentration determination.

Where [1] appears, read: orally, up to 0.3 mg/kg for 4 weeks.

`CN(C)c1ncc(CN2CCC(c3cc(O)nc(N4CCOCC4)n3)CC2)cn1` [Compound IIa, 6-[1-(2-Dimethylaminopyrimidin-5-ylmethyl)-piperidin-4-yl]-2-morpholin-4-yl-pyrimidin-4-ol]: the “regression of atherosclerotic plaques in aorta (decrease of cholesterol content of the entire artery)” value in the assay with New Zealand rabbits (orally, doses up to 0.3 mg/kg for 4 weeks) is on record as 30%. Further, in the assay on New Zealand rabbits (setting [1]), the “HDL cholesterol and rabbit apoA-I (HPLC, SELDI-TOF)” value is listed as “trend towards an increase”; the “VLDL and LDL cholesterol” value is reported as “decreased slightly”. In addition, the “pre-established atherosclerotic plaques in aortas of rabbits fed with cholesterol chow” value in the assay with New Zealand rabbits (summary statement) is given as “induced the regression”. In the assay on New Zealand rabbits (treated rabbits), the “apoA-I mRNA expression in the liver” value is “increase”; the “bile acid content in the liver” value was “increased”; the “mRNA expressions of LDL receptors and SR-BI in the liver (QPCR)” value is reported as “No change”; the “plasma apoA-I” value is listed as “increase”. Besides, the “bile acids (BA) and free cholesterol secretion into bile” value in the assay on C57Bl6 mice was “increase”.
